Columns and labels:
Cytochrome b [1] = target: Cytochrome b (Homo sapiens, UniProt P00156); test: Cytochrome b Enzyme Assay; settings: pH 7.4; 25 °C
Method: (§1) Reaction plates were incubated at room temperature for 10 min before reading absorbance at 550 nm. Absolute IC50 values were calculated in GraphPad Prism 6.0.

Cytochrome b [2] = target: T1, Cytochrome b (Candida albicans, UniProt I2BJW5); test: Cytochrome b Enzyme Assay; settings: pH 7.4; 25 °C
T1 sequence (I2BJW5 whole entry): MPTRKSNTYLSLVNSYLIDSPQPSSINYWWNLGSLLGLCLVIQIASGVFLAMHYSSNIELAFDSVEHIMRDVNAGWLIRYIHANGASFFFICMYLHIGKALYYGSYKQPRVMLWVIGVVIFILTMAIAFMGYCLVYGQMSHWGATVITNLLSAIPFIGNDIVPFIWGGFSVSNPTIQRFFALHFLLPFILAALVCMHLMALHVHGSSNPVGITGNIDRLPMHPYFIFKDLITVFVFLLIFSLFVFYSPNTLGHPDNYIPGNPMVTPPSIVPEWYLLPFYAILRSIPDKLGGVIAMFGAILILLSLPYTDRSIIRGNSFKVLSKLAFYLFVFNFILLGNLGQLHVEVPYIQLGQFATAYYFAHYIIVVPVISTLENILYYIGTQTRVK
Method: as §1

Sequence of Cytochrome b (Homo sapiens, UniProt P00156) (P00156 whole entry): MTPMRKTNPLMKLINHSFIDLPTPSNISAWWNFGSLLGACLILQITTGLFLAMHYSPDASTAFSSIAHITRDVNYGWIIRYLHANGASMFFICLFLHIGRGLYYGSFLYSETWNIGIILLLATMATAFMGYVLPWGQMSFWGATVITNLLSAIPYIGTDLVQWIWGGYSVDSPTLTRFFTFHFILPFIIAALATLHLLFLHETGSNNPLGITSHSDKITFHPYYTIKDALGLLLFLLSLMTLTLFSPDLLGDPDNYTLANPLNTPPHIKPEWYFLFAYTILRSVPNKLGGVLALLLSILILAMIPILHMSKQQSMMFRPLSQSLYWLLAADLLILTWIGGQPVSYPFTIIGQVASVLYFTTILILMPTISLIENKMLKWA

| SMILES | IC50 (Cytochrome b [1]) [µM] | IC50 (Cytochrome b [2]) [µM] |
| --- | --- | --- |
| COC(=O)Cn1nc(-c2cccc(F)c2F)c2ccccc21 [Inz-60] | > 64 | 1.43 |
| COC(=O)Cn1nc(-c2cc(F)ccc2F)c2ccccc21 [Inz-61] | > 64 | 0.891 |
| COC(=O)Cn1nc(-c2cc(F)ccc2C)c2ccccc21 [Inz-62] | > 64 | 4.7 |
| COC(=O)Cn1nc(-c2cccc(OCCN(C)C)c2)c2ccccc21 [Inz-63] | > 64 | 35.2 |
| COC(=O)Cn1nc(-c2cccc(OCCC3CCCCC3)c2)c2ccccc21 [Inz-64] | 3.23 | 0.3 |
| CCN(CC)CCOc1cccc(-c2nn(CC(=O)OC)c3ccccc23)c1 [Inz-65] | > 64 | 13.8 |
| COC(=O)Cn1nc(-c2cccc(OCc3ccccc3)c2C)c2ccccc21 [Inz-66] | > 64 | 1.08 |
| COC(=O)Cn1nc(-c2cccc(OCCN(C(C)C)C(C)C)c2)c2ccccc21 [Inz-67] | 19.3 | 2.4 |
| COC(=O)Cn1nc(-c2cc(OCc3ccccc3)ccc2F)c2ccccc21 [Inz-68] | 1.66 | 0.0352 |
| COC(=O)Cn1nc(-c2cccc(OCc3ccccc3)c2F)c2ccccc21 [Inz-69] | > 64 | 3.27 |
| COC(=O)Cn1nc(-c2cccc(F)c2)c2ccccc21 [Inz-70] | > 64 | 5.91 |
| COC(=O)Cn1nc(-c2ccc(F)cc2F)c2ccccc21 [Inz-71] | > 64 | 16.6 |
| c1ccc(-c2nn(Cc3nnco3)c3ccccc23)cc1 [Inz-72] | > 64 | 17.9 |
| COC(=O)Cn1nc(-c2cccs2)c2ccccc21 [Inz-73] | > 64 | 15.1 |
| COC(=O)Cn1nc(-c2cccc(OCCC(C)(C)C)c2)c2ccccc21 [Inz-74] | 4.72 | 0.657 |
| COC(=O)Cn1nc(-c2cccc(OCCC34CC5CC(CC(C5)C3)C4)c2)c2ccccc21 [Inz-75] | 1.08 | 1.14 |
| COC(=O)Cn1nc(-c2cccc(OCCCC3CCCCC3)c2)c2ccccc21 [Inz-76] | 5.46 | 1.8 |

| SMILES | IC50 (Cytochrome b [1]) [µM] | IC50 (Cytochrome b [2]) [µM] |
| --- | --- | --- |
| Cc1nc(Cn2nc(-c3ccccc3)c3ccccc32)no1 [Inz-77] | > 64 | > 64 |
| c1ccc(-c2nn(Cc3ncon3)c3ccccc23)cc1 [Inz-78] | > 64 | 14.8 |
| c1ccc(-c2nn(Cc3c[nH]nn3)c3ccccc23)cc1 [Inz-79] | > 64 | > 64 |
| COC(=O)Cn1nc(-c2cc(OCCCC3CCCCC3)ccc2F)c2cccc(C)c21 [Inz-80] | 0.79 | 0.0388 |
| COC(=O)Cn1nc(-c2cc(OCCCC3CCCCC3)ccc2F)c2ccccc21 [Inz-81] | 2.43 | 0.129 |
| Cn1nnc(Cn2nc(-c3cc(OCCCC4CCCCC4)ccc3F)c3ccccc32)n1 [Inz-82] | 12.3 | 0.614 |
| Cn1nnc(Cn2nc(-c3cc(C(F)(F)F)ccc3F)c3ccccc32)n1 [Inz-83] | > 64 | 1.22 |
| Cc1cccc2c(-c3cc(OCCCC4CCCCC4)ccc3F)nn(Cc3nnn(C)n3)c12 [Inz-84] | 2.92 | 0.154 |
| c1ccc(-c2nn(Cc3ccccn3)c3ccccc23)cc1 [Inz-85] | > 64 | > 64 |
| COC(=O)CNc1ccccc1Oc1ccccc1 [Inz-86] | > 64 | > 64 |
| CN(O)C(=O)Cn1nc(-c2ccccc2)c2ccccc21 [Inz-87] | > 64 | > 64 |
| O=C(Cn1nc(-c2ccccc2)c2ccccc21)NO [Inz-88] | > 64 | > 64 |
| FC(F)Cn1nc(-c2ccccc2)c2ccccc21 [Inz-89] | > 64 | > 64 |
| Brc1cccnc1Cn1nc(-c2ccccc2)c2ccccc21 [Inz-90] | > 64 | > 64 |
| N#Cc1ncccc1Cn1nc(-c2ccccc2)c2ccccc21 [Inz-91] | > 64 | > 64 |
| COC(=O)Cn1nc(-c2ccncc2)c2ccccc21 [Inz-92] | > 64 | > 64 |

Reference: BindingDB's records for doi:10.1016/j.chembiol.2016.06.016 (Massachusetts Institute of Technology, 2016)
